Data: US10023592B2, “Bromodomain inhibitors” (Celgene Quanticel Research, Inc., priority 2013, dated 2018)
pIC50: −log10 of the molar value.

Legend:
[1] = system: NCI-H460, human non-small cell lung cancer cells; test: Cell-MTS proliferation assay, NCI-H460; type: cell-based; details: Homo sapiens, 168 hr
Outline: (§1)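 Seed: Raji 15,000, HL-60 5,000, NCI-H460 3,000 cells/96-well. +24 hr: 11-pt compound dilution, 100 μM–2.0 nM final. 7 d culture, MTS reagent, read OD490; IC50 vs DMSO, background subtracted.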

[2] = system: HL-60, human proleukemia cells; test: Cell-MTS proliferation assay, HL-60; type: cell-based; details: Homo sapiens, 168 hr
Outline: as §1

BRD4(BD1) = BRD4(BD1) (Homo sapiens (Human), UniProt O60885); test: In vitro enzyme inhibition assay (BRD4 AlphaScreen); type: binding
Outline: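 His-tagged BRD4 tested by AlphaScreen for binding of biotinylated H4K5/8/12/16-tetraacetyl peptide. After 20 min at room temperature, streptavidin donor and nickel chelate acceptor beads added (5 μg/mL final each). IC50 determined.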

[3] = system: Raji, human Burkitts lymphoma cells; test: Cell-MTS proliferation assay, Raji; type: cell-based; details: Homo sapiens, 168 hr
Outline: as §1

[4] = Cell-MTS proliferation, NCI-H460 cells
[5] = Cell-MTS proliferation, HL-60 cells
[6] = in vitro enzyme inhibition assay
[7] = Cell-MTS proliferation, Raji cells
[8] = NCI-H460, Cell-MTS, class symbols A/B/C
[9] = HL-60, Cell-MTS, class symbols A/B/C
[10] = Raji, Cell-MTS, class symbols A/B/C
[11] = NCI-H460, Cell-MTS proliferation

SMILES	pIC50 [1, 4]	pIC50 [2, 5]	pIC50 (BRD4(BD1); [6])	pIC50 [3, 7]	pIC50 [1, 8]	pIC50 [2, 9]	pIC50 (BRD4(BD1); class symbols A/B/C)	pIC50 [3, 10]	pIC50 [1, 11]	pIC50 ([2]; HL-60, Cell-MTS proliferation)	pIC50 ([3]; Raji, Cell-MTS proliferation)
CCS(=O)(=O)Nc1ccc(Oc2ccc(F)cc2F)c(-c2cn(C)c(=O)c3ccccc23)c1 [Example 93, N-[4-(2,4-difluorophenoxy)-3-(2-methyl-1-oxoisoquinolin-4-yl)phenyl]ethanesulfonamide]	–	–	–	–	< 5.30	> 6.30	> 6.30	> 6.30	–	–	–
CCS(=O)(=O)c1cc(-c2cn(C)c(=O)c3ccccc23)c(NCC2CC2)s1 [Example 205, 4-[2-(cyclopropylmethylamino)-5-ethylsulfonylthiophen-3-yl]-2-methylisoquinolin-1-one]	–	–	> 6.30	–	–	–	–	–	< 5.30	5.30 to 6.30	5.30 to 6.30
COc1cc(-c2nc(S(C)(=O)=O)ncc2Oc2ccc(F)cc2F)cn(C)c1=O [Example 150, 5-[5-(2,4-difluorophenoxy)-2-methylsulfonylpyrimidin-4-yl]-3-methoxy-1-methylpyridin-2-one]	–	–	> 6.30	–	–	–	–	–	< 5.30	5.30 to 6.30	5.30 to 6.30
Cn1cc(-c2cc(S(C)(=O)=O)ccc2OC2CCOC2)c2ccccc2c1=O (stereo not shown) [Example 175, 2-methyl-4-[5-methylsulfonyl-2-(oxolan-3-yloxy)phenyl]isoquinolin-1-one]	–	–	> 6.30	–	–	–	–	–	< 5.30	> 6.30	> 6.30
CCS(=O)(=O)Nc1ccc(Oc2ccc(F)cc2F)c(-c2cc(OC(F)F)c(=O)n(C)c2)c1 [Example 289, N-[3-[5-(difluoromethoxy)-1-methyl-6-oxopyridin-3-yl]-4-(2,4-difluorophenoxy)phenyl]ethanesulfonamide]	–	–	> 6.30	–	–	–	–	–	< 5.30	> 6.30	> 6.30
CCS(=O)(=O)Nc1ccc(Oc2ccc(F)cc2F)c(-c2cc(OCC(F)(F)F)c(=O)n(C)c2)c1 [Example 290, N-[4-(2,4-difluorophenoxy)-3-[1-methyl-6-oxo-5-(2,2,2-trifluoroethoxy)pyridin-3-yl]phenyl]ethanesulfonamide]	–	–	> 6.30	–	–	–	–	–	< 5.30	> 6.30	> 6.30
Cn1cc(-c2cc(S(C)(=O)=O)ccc2OCC2CC2)n2cncc2c1=O [Example 130, 5-[2-(cyclopropylmethoxy)-5-methylsulfonylphenyl]-7-methylimidazo[1,5-a]pyrazin-8-one]	–	–	–	–	< 5.30	> 6.30	> 6.30	5.30 to 6.30	–	–	–
CCS(=O)(=O)Nc1ccc(OCC2CC2)c(-c2cn(C)c(=O)c3sc(C(N)=O)cc23)c1 [Example 266, 4-[2-(cyclopropylmethoxy)-5-(ethylsulfonylamino)phenyl]-6-methyl-7-oxothieno[2,3-c]pyridine-2-carboxamide]	–	–	> 6.30	–	–	–	–	–	< 5.30	> 6.30	> 6.30
CCS(=O)(=O)Nc1ccc(Oc2ccc(F)cc2F)c(-c2cn(C)c(=O)c3nc(C)oc23)c1 [Example 241, N-[4-(2,4-difluorophenoxy)-3-(2,5-dimethyl-4-oxo-[1,3]oxazolo[4,5-c]pyridin-7-yl)phenyl]ethanesulfonamide]	–	–	> 6.30	–	–	–	–	–	< 5.30	> 6.30	> 6.30
CCS(=O)(=O)Nc1cnc(OCC2CC2)c(-c2cn(C)c(=O)c3occc23)c1 [Example 257, N-[6-(cyclopropylmethoxy)-5-(6-methyl-7-oxofuro[2,3-c]pyridin-4-yl)pyridine-3-yl]ethanesulfonamide]	–	–	> 6.30	–	–	–	–	–	< 5.30	> 6.30	> 6.30
CCS(=O)(=O)c1cccc(-c2cn(C)c(=O)c3cc(F)ccc23)c1 [Example 63, 4-(3-ethylsulfonylphenyl)-7-fluoro-2-methylisoquinolin-1-one]	–	–	–	–	< 5.30	5.30 to 6.30	5.30 to 6.30	5.30 to 6.30	–	–	–
CC#CCOc1ccc(S(=O)(=O)CC)cc1-c1cn(C)c(=O)c2ccccc12 [Example 185, 4-(2-but-2-ynoxy-5-ethylsulfonylphenyl)-2-methylisoquinolin-1-one]	–	–	> 6.30	–	–	–	–	–	< 5.30	> 6.30	> 6.30
CCS(=O)(=O)Nc1cnc(Oc2ccc(F)cc2F)c(-c2cn(C)c(=O)c3occc23)c1 [Example 256, N-[6-(2,4-difluorophenoxy)-5-(6-methyl-7-oxofuro[2,3-c]pyridin-4-yl)pyridine-3-yl]ethanesulfonamide]	–	–	> 6.30	–	–	–	–	–	< 5.30	> 6.30	> 6.30
CCC(=O)Nc1ccc(S(C)(=O)=O)cc1-c1cn(C)c(=O)c2ccccc12 [Example 221, N-[2-(2-methyl-1-oxoisoquinolin-4-yl)-4-methylsulfonylphenyl]propanamide]	–	–	< 5.30	–	–	–	–	–	< 5.30	< 5.30	< 5.30
CCS(=O)(=O)Nc1ccc(Cl)c(-c2cn(C)c(=O)c3ccc(F)cc23)c1 [Example 50, N-[4-chloro-3-(6-fluoro-2-methyl-1-oxoisoquinolin-4-yl)phenyl] ethanesulfonamide]	–	–	–	–	5.30 to 6.30	> 6.30	> 6.30	5.30 to 6.30	–	–	–

Further lines, results first:

pIC50 [1, 4]	pIC50 [2, 5]	pIC50 (BRD4(BD1); [6])	pIC50 [3, 7]	pIC50 [1, 8]	pIC50 [2, 9]	pIC50 (BRD4(BD1); class symbols A/B/C)	pIC50 [3, 10]	pIC50 [1, 11]	pIC50 ([2]; HL-60, Cell-MTS proliferation)	pIC50 ([3]; Raji, Cell-MTS proliferation)	SMILES
< 5.30	< 5.30	5.30 to 6.30	< 5.30	–	–	–	–	–	–	–	Cn1cc(-c2cccc(NS(C)(=O)=O)c2)cc(O)c1=O [Example 467, N-[3-(5-hydroxy-1-methyl-6-oxopyridin-3-yl)phenyl]methanesulfonamide]
< 5.30	5.30 to 6.30	> 6.30	< 5.30	–	–	–	–	–	–	–	Cn1cc(-c2cc(S(C)(=O)=O)ccc2NCC2CC2)ccc1=O [Example 468, 5-[2-(cyclopropylmethylamino)-5-methylsulfonylphenyl]-1-methylpyridin-2-one]
< 5.30	> 6.30	> 6.30	5.30 to 6.30	–	–	–	–	–	–	–	Cc1cc(-c2cc(S(C)(=O)=O)ccc2O[C@H]2CC[C@H](O)CC2)cn(C)c1=O [Example 401, 5-[2-(4-hydroxycyclohexyl)oxy-5-methylsulfonylphenyl]-1,3-dimethylpyridin-2-one]
–	–	> 6.30	–	–	–	–	–	< 5.30	> 6.30	5.30 to 6.30	Cc1cc(-c2cc(OCc3ccccc3OC(F)F)cc(S(C)(=O)=O)c2)cn(C)c1=O [Example 333, 5-[3-[[2-(difluoromethoxy)phenyl]methoxy]-5-methylsulfonylphenyl]-1,3-dimethylpyridin-2-one]
–	–	> 6.30	–	–	–	–	–	< 5.30	5.30 to 6.30	5.30 to 6.30	Cc1cc(-c2cc(OCCC3CC3)cc(S(C)(=O)=O)c2)cn(C)c1=O [Example 327, 5-[3-(2-cyclopropylethoxy)-5-methylsulfonylphenyl]-1,3-dimethylpyridin-2-one]
< 5.30	> 6.30	> 6.30	> 6.30	–	–	–	–	–	–	–	Cc1cc(-c2cc(NS(C)(=O)=O)ccc2OC2CCOCC2)cn(C)c1=O [Example 439, N-[3-(1,5-dimethyl-6-oxopyridin-3-yl)-4-(oxan-4-yloxy)phenyl] methanesulfonamide]
–	–	> 6.30	–	–	–	–	–	< 5.30	> 6.30	> 6.30	Cn1cc(-c2cc(OCc3ccccc3)cc(S(C)(=O)=O)c2)c2ccoc2c1=O [Example 349, 6-methyl-4-(3-methylsulfonyl-5-phenylmethoxyphenyl)furo[2,3-c]pyridin-7-one]
